The record followed here is ChEMBL document CHEMBL4431334, “Occupying a flat subpocket in a tRNA-modifying enzyme with ordered or disordered side chains: Favorable or unfavorable for binding?” (Bioorg Med Chem, 2016).

A short description of test [1]: Binding affinity to Zymomonas mobilis tRNA guanine transglycosylase assessed as inhibition of [8-3H]guanine incorporation into Escherichia coli tRNA Tyr at position G34 preincubated for 10 mins followed by tRNA Tyr/[8-3H]guanine addition measured after 30 mins by liquid scintillation counting.
The nature of test [2]: Binding affinity to Zymomonas mobilis tRNA guanine transglycosylase by isothermal titration calorimetry. (In ITC the heat of successive injections is recorded.)

Take `COC(=O)c1ccc(CCNc2nc3cc4nc(N)[nH]c(=O)c4cc3[nH]2)cc1`: in test [1], the Ki amounted to 2 nM. Still for that read-out and setting: the value for `N#Cc1ccc(CCNc2nc3cc4nc(N)[nH]c(=O)c4cc3[nH]2)cc1` was 21 nM. For `Nc1nc2cc3nc(NCCc4ccc(CCO)cc4)[nH]c3cc2c(=O)[nH]1`, the Ki in test [1] worked out at 7 nM. Regarding `Nc1nc2cc3nc(NCCc4ccccc4)[nH]c3cc2c(=O)[nH]1`, the Ki in test [1] worked out at 10 nM. Moreover, the Kd in test [2] came out at 56.6 nM.

Take `Nc1nc2cc3nc(NCCc4ccc(C(=O)O)cc4)[nH]c3cc2c(=O)[nH]1`: the Ki in test [1] is 30 nM. The affinity in test [2], expressed as Kd, was 29.8 nM.

In general, Ki refers to the equilibrium dissociation constant of an inhibitor or competing ligand from its target. The term Kd denotes the equilibrium constant for the complex coming apart. Low values mean higher affinity, high ones lower affinity.
